This passage reports IC50 results from patent US20230373985A1 (Origenis Gmbh, priority 2020, published 2023).

For test [1], the target named is T1, wt human JAK1, catalytic site (Homo sapiens, UniProt P23458).
T1 construct: wt human JAK1, catalytic site; purchased ThermoFisher
Briefly: HTRF KinEASE assay, JAK1. Format: biochemical. To be noted: 2.5 μM ATP; read-out: IC50, Activity Toward JAK1. The method, boiled down:
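Compounds in DMSO dilution were mixed with kinase, biotin-TK substrate and ATP and reacted for ≥30 min at room temperature. Detection reagents (antibody, streptavidin-XL665) were read 60 min later as HTRF, with emission ratios analysed per KinEASE protocol.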

Test [2] concerns the target T2, wt human TYK2, catalytic site (Homo sapiens, UniProt P29597).
T2 construct: wt human TYK2, catalytic site; purchased SignalChem
T2 sequence (P29597 897-1176 limits assumed): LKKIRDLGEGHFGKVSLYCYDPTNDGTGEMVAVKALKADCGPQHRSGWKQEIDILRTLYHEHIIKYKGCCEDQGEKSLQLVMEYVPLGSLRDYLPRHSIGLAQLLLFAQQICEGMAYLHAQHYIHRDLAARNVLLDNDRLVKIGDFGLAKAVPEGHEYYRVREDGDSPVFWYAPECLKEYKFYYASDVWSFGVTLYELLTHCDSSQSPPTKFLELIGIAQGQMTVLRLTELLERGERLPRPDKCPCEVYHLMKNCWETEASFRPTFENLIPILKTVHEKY
The experiment in a line: HTRF KinEASE assay, TYK2. In kind it is biochemical. The settings on record: 1 μM ATP; read-out: IC50, Activity Toward TYK2. The method, boiled down: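 Kinase reaction run at room temperature for at least 30 min: 2 nM TYK2 with 1 μM ATP, or 1 nM JAK2 with 100 μM ATP, each with 1 μM biotin-TK substrate. Phosphorylation detected by HTRF (60 min antibody/XL665) and evaluated from emission ratios.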
A general note: In TR-FRET formats the signal depends on donor and acceptor labels being close together.

For test [3], the target named is T3, wt human JAK2, catalytic site (Homo sapiens, UniProt O60674).
T3 construct: wt human JAK2, catalytic site; purchased SignalChem
T3 sequence (O60674 849-1124 limits assumed): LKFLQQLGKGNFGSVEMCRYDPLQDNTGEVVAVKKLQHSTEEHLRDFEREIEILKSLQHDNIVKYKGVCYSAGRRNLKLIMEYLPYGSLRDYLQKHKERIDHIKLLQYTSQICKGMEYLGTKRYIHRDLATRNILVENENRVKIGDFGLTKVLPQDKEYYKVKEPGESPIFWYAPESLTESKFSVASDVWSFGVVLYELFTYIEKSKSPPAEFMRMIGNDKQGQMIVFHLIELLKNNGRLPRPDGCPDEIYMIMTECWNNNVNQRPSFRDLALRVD
The experiment in a line: HTRF KinEASE assay, JAK2. The settings on record: assay format not given (Z'-LYTE or HTRF KinEASE); read-out: IC50, Activity Toward JAK2. In kind it is biochemical. On the procedure: Basic protocol for HTRF KinEASE assay (Cisbio/FRA) inhibitor studies involved two steps: • Enzymatic step: Addition of 4 μL of test compound in corresponding DMSO dilutions, 4 μL of kinase/substrate mixture, 2 μL of ATP into 384 well small volume plates. Incubation for at least 30 minutes at room temperature. • Detection step: Addition of 5 μL antibody and 5 μL streptavidin-XL665, read plate after 60 minutes. Data analysis of emission ratios according KinEASE assay protocol.
(§1) Kinase and assay components were adjusted to final concentrations according to kit protocol. For TYK2: 2 nM wt human TYK2, catalytic site (SignalChem/CAN), 1 μM HTRF KinEASE-TK Substrate-biotin, 1 μM ATP in 1× Kinase Buffer. For JAK1: 4 nM wt human JAK1, catalytic site (ThermoFisher/USA), 1 μM HTRF KinEASE-TK Substrate-biotin, 2.5 μM ATP in 1× Kinase Buffer. For JAK2: 1 nM wt human JAK2, catalytic site (SignalChem/CAN), 1 μM HTRF KinEASE-TK Substrate-biotin, 100 μM ATP in 1× Kinase Buffer.
as §1

Test [4] addresses T4, G2019S human LRRK2, catalytic site (Homo sapiens, UniProt Q5S007, G2019S).
T4 construct: G2019S human LRRK2, catalytic site; purchased ThermoFisher
Briefly: TR-FRET LanthaScreen Eu Kinase Binding Assay, LRRK2 G2019S. To be noted: LRRK2(G2019); one range stated for wt and G2019; read-out: IC50, Activity Toward LRRK2(G2019). The method, boiled down: (§2)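 Kinase Buffer A holding, as final levels, 8 nM full-length NUAK1, 2 nM Eu-anti-His antibody and 5 nM Tracer 236, or 5 nM LRRK2 catalytic site (wt or G2019S), 2 nM Eu-anti-GST and 10 nM Tracer 236. Compound added, then 1 h at room temperature before TR-FRET ratio readout.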

Test [5] addresses T5, wt human LRRK2, catalytic site (Homo sapiens, UniProt Q5S007).
T5 construct: 5 nM wt human LRRK2, catalytic site; purchased ThermoFisher
The experiment in a line: TR-FRET LanthaScreen Eu Kinase Binding Assay, LRRK2 wt. To be noted: one range stated for wt and G2019, read-out: IC50, Activity Toward LRRK2(Wt). The method, boiled down: as §2

The target of test [6] is T6, wt human NUAK1, full length (Homo sapiens, UniProt O60285).
T6 construct: 8 nM wt human NUAK1, full length (ThermoFisher/USA); purchased ThermoFisher
T6 sequence (O60285 1-661): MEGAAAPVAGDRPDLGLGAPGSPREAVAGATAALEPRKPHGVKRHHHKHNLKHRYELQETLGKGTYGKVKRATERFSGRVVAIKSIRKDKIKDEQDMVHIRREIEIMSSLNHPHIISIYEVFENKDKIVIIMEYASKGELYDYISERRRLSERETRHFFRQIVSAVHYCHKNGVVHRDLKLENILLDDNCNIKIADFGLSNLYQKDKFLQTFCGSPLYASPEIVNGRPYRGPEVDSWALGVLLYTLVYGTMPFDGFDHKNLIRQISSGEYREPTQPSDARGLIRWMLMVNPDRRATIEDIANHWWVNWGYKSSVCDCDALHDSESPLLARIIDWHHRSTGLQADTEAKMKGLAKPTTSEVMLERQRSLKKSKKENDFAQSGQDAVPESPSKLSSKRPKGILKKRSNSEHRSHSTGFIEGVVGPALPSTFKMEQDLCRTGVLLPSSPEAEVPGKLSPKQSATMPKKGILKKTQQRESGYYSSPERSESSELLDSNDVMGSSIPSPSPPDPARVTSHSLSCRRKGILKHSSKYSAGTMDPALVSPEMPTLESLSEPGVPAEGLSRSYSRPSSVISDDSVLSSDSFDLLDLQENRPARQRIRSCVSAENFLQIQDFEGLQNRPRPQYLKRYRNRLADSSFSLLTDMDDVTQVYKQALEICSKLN
Briefly: TR-FRET LanthaScreen Eu Kinase Binding Assay, NUAK1. To be noted: read-out: IC50, Activity Toward NUAK1. The method, boiled down:
as §2

T4 sequence (Q5S007 970-2527 G2019S limits assumed): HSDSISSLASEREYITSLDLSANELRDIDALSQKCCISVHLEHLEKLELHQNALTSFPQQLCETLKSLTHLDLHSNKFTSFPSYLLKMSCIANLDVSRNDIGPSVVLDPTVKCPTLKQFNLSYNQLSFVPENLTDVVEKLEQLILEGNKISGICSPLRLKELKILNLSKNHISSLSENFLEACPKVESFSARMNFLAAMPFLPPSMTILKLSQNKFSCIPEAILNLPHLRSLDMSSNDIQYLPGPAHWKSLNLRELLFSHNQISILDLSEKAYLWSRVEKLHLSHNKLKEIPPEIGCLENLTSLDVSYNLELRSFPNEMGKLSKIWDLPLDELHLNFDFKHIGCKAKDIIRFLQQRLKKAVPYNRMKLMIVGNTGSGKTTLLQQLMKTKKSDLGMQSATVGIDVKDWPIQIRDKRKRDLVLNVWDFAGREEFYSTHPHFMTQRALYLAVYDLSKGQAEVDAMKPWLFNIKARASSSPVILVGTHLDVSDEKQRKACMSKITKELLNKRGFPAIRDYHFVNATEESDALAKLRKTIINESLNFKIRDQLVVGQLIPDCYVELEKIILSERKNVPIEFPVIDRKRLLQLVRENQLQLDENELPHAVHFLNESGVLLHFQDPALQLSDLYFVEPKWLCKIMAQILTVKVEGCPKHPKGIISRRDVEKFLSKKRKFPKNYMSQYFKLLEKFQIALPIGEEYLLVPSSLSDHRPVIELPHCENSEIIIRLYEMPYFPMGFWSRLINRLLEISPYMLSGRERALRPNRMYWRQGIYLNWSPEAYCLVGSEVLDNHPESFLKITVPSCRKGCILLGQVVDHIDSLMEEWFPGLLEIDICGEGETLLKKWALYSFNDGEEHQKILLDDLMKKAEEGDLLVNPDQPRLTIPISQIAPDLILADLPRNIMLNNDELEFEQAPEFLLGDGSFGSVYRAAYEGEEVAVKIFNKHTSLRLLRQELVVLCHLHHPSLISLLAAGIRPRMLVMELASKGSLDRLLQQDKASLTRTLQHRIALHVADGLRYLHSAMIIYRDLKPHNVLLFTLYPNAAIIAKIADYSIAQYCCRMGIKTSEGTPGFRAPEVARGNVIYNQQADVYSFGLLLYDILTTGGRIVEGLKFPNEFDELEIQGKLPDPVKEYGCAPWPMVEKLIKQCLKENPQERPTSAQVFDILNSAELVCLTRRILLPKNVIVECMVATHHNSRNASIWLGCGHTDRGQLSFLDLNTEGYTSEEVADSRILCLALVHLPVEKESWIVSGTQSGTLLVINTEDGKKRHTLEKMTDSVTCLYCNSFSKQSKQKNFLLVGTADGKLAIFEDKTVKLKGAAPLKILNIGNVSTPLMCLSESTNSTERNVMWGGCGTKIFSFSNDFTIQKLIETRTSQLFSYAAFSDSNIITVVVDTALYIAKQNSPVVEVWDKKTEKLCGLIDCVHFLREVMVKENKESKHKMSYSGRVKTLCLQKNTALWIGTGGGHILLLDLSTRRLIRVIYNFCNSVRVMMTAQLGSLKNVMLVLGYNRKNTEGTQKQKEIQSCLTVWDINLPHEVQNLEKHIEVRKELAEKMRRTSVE
T1 sequence (P23458 875-1153 limits assumed): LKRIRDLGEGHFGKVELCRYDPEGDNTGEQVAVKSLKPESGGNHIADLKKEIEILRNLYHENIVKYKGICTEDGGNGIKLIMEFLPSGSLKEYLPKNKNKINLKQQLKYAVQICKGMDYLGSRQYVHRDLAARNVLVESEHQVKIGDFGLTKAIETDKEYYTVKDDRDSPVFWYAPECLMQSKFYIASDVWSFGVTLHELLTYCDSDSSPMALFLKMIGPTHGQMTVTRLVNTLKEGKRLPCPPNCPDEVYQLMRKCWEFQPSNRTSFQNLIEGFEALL
T5 sequence (Q5S007 970-2527 limits assumed): as the sequence (Q5S007 970-2527 G2019S limits assumed) above, with S1050G counted along it

For orientation: IC50 means the point on the concentration scale where inhibition reaches its midpoint. In the case of `Cn1nnnc1-c1ccc(Nc2cn(-c3c(Cl)cccc3Cl)nc2C(N)=O)cc1` [compound 238, 1-(2,6-dichlorophenyl)-4-((4-(1-methyl-1H-tetrazol-5-yl)phenyl)amino)-1H-pyrazole-3-carboxamide], the values for the IC50 in test [1], in test [2] and in test [3] were 10 to 100 nM, less than 10 nM and 100 to 1000 nM, respectively.
The corresponding values for `CN=S1(=O)CCN(C(=O)c2ccc(Nc3nn(-c4c(Cl)cccc4Cl)nc3C(N)=O)cc2)CC1` [compound 171, 2-(2,6-dichlorophenyl)-5-((4-(1-(methylimino)-1-oxidothiomorpholine-4-carbonyl)phenyl)amino)-2H-1,2,3-triazole-4-carboxamide] are less than 10 nM, less than 10 nM and 100 to 1000 nM.
The corresponding values for `N=S1(=O)CCN(C(=O)c2ccc(Nc3nn(-c4c(Cl)cccc4Cl)nc3C(N)=O)cc2)CC1` [compound 169, 2-(2,6-dichlorophenyl)-5-((4-(1-imino-1-oxidothiomorpholine-4-carbonyl)phenyl)amino)-2H-1,2,3-triazole-4-carboxamide] are less than 10 nM, less than 10 nM and 100 to 1000 nM.
The corresponding values for `NC(=O)c1nn(-c2c(Cl)cccc2Cl)nc1Nc1ccc(-c2nnc3n2CCCC3)cc1` [compound 109, 2-(2,6-Dichloro-phenyl)-5-[4-(5,6,7,8-tetrahydro-[1,2,4]triazolo[4,3-a]pyridin-3-yl)-phenylamino]-2H-[1,2,3]triazole-4-carboxylic acid amide] are 10 to 100 nM, less than 10 nM and 100 to 1000 nM.
In the case of `CN1CCC(Oc2ccc(Nc3nn(-c4c(Cl)cccc4Cl)nc3C(N)=O)cc2)CC1` [compound 114, 2-(2,6-dichlorophenyl)-5-((4-((1-methylpiperidin-4-yl)oxy)phenyl)amino)-2H-1,2,3-triazole-4-carboxamide], the values for the IC50 in test [1], in test [2] and in test [3] were less than 10 nM, less than 10 nM and 100 to 1000 nM, respectively.
Consider `N#Cc1cccc(F)c1-n1nc(Nc2ccc(C(=O)N3CC[C@@H](F)C3)cc2)c(C(N)=O)n1` [compound 164, (R)-2-(2-cyano-6-fluorophenyl)-5-((4-(3-fluoropyrrolidine-1-carbonyl)phenyl)amino)-2H-1,2,3-triazole-4-carboxamide], for which the IC50 in test [1] is 10 to 100 nM; in test [2], 10 to 100 nM; in test [3] it was 100 to 1000 nM.
Regarding `NC(=O)c1nn(-c2c(Cl)cccc2Cl)cc1Nc1ccc(C(=O)N2CCCC2)cc1` [compound 94, 1-(2,6-dichlorophenyl)-4-((4-(pyrrolidine-1-carbonyl)phenyl)amino)-1H-pyrazole-3-carboxamide], the IC50 lay in the range of 10 to 100 nM in test [1], 10 to 100 nM in test [2] and 100 to 1000 nM in test [3].
On to `CN1CCC(NC(=O)c2ccc(Nc3cn(-c4c(F)cccc4Cl)nc3C(N)=O)cc2)CC1` [compound 35, 1-(2-chloro-6-fluorophenyl)-4-((4-((1-methylpiperidin-4-yl)carbamoyl)phenyl)amino)-1H-pyrazole-3-carboxamide], for which the IC50 in test [1] is 10 to 100 nM; in test [2] it was 10 to 100 nM; in test [4], 10 to 100 nM; in test [5], 10 to 100 nM; in test [6], 100 to 1000 nM.
For `CC(C)(C)NC(=O)c1ccc(Nc2cn(-c3c(F)cccc3F)nc2C(N)=O)cc1` [compound 15, 4-((4-(tert-butylcarbamoyl)phenyl)amino)-1-(2,6-difluorophenyl)-1H-pyrazole-3-carboxamide], the IC50 in test [1] is 100 to 1000 nM; in test [2], 10 to 100 nM; in test [4] it was 100 to 1000 nM; in test [5], 100 to 1000 nM; in test [6], 100 to 1000 nM.
For the compound `Cn1cc(Nc2cn(-c3c(F)cccc3Cl)nc2C(N)=O)cn1` [compound 359, 1-(2-chloro-6-fluorophenyl)-4-((1-methyl-1H-pyrazol-4-yl)amino)-1H-pyrazole-3-carboxamide], the IC50 in test [1] was 10 to 100 nM; in test [2], 10 to 100 nM; in test [4], 100 to 1000 nM; in test [5] it was 100 to 1000 nM; in test [6], 100 to 1000 nM.
